PubChem BioAssay AID449753 (NMMLSC, 2010)
Calls of active or inactive are those of the source.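 The calls were made as follows: active = EC50 under 30000 nM from a falling dose curve whose fit quality and slope passed set checks; inactive = the rest.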

Test system: not listed separately
Assay: superoxide reduction in chronologically aged yeast, dose response, DHE fluorescence, primary hits (AID 449753)
Details: S. cerevisiae aged culture, superoxide DHE fluorescence, 7 d; at 30 µM (top of the series)

Row | SMILES | percent response (superoxide), lower = inhibition
1 | C[C@]12CCC3C(CC[C@H]4C[C@@H](O)CC[C@]34C)C1CC[C@@H]2OC(=O)[C@H](N)CCCCN (stereo partly specified) | 71.9 (inactive)
2 | C[C@]12CCC3C(CC[C@H]4C[C@@H](O)CC[C@]34C)[C@H]1CC[C@H]2O (stereo partly specified) | 64.7 (inactive)
3 | O=C(OCc1c(F)cccc1Cl)c1cnc2ccccc2n1 | 117 (inactive)
4 | O=c1[nH]c(O)c(C=Nc2ccc(F)c(Cl)c2)c(=O)[nH]1 | 107 (inactive)
5 | O=C(/C=C/c1ccccc1)NC(=S)NNC(=O)Cc1cccs1 | 83 (inactive)
6 | CCc1nc(NC(C)(C)C)c2cnn(-c3ccccc3)c2n1 | 88 (inactive)
7 | O=C(Nc1cccc(Cl)c1)Nc1ccc2nccnc2c1 | 87.1 (inactive)
8 | CCN(CC)C(=O)CSc1nnc(-c2cccc(OC)c2)o1 | 92.6 (inactive)
9 | CC(C)OC(=O)CSc1nnc(-c2ccc(Cl)cc2Cl)o1 | 112 (inactive)
10 | CC(=O)O[C@H]1CCC2C3CC[C@H]4[C@@H](O)[C@H](O)CC[C@]4(C)C3CC[C@@]21C (stereo partly specified) | 90.2 (inactive)
11 | O=C(Nc1ccc2nc3ccccc3nc2c1)c1ccccc1 | 57.7 (inactive)
12 | O=C(Nc1ccc2nc3ccccc3nc2c1)c1ccc(Br)cc1 | 105 (inactive)
13 | CC(=O)[C@@]1(O)CCC2C3CC[C@H]4C[C@@H](O)CC[C@]4(C)C3CC[C@@]21C (stereo partly specified) | 129 (inactive)
14 | COc1ccc2nc3ccccc3nc2c1NC(=O)c1ccccc1Cl | 56.6 (inactive)
15 | O=C(/C=C/c1cccs1)NC(=S)NNC(=O)Cc1cccs1 | 121 (inactive)
16 | N#CC(c1nc2ccccc2nc1N1CCCC1)S(=O)(=O)c1ccccc1 (stereo unspecified) | 98.7 (inactive)
17 | O=C(O)c1cnc2ccccc2n1 | 114 (inactive)
18 | C=CCOn1c(=O)c(-c2cccs2)[n+]([O-])c2ccccc21 | 104 (inactive)
19 | CN(C)CCNc1ncnc2c1cnn2-c1ccc(Cl)cc1 | 99.2 (inactive)
20 | N#CCc1nn(-c2ccccc2)c2ncnc(N)c12 | 96.7 (inactive)
21 | C#C[C@]1(O)[C@H](O)CC2C3CC[C@H]4C[C@@H](O)CC[C@]4(C)C3CC[C@@]21C (stereo partly specified) | 87.4 (inactive)

Test system: S. cerevisiae aged culture, superoxide DHE fluorescence, 7 d
Assay: as above
Details: not given

Row | SMILES | EC50
22 | CC(C)OC(=O)c1ccc2nc3ccccc3nc2c1 | 16700 nM
23 | Cn1c(O)c(C(=Nc2ccc(F)cc2)c2ccccc2Cl)c(=O)n(C)c1=O | 3140 nM (inactive)
24 | C=CCSc1nnc(-c2ccc([N+](=O)[O-])cc2)o1 | 2900 nM
25 | CNC(=O)c1cccc2nc3ccccc3nc12 | 14500 nM
26 | C=C1C(O)[C@@H]2O[C@]3(CC[C@H](/C=C/C(C)[C@@H]4CC(C)=CC5(O[C@H](C[C@@](C)(O)C(=O)O)CCC5O)O4)O3)CC[C@H]2O[C@@H]1C(O)CC(C)[C@H]1OC2(CCCCO2)CCC1C (stereo partly specified) | 100 nM
27 | C#CCSc1nnc(-c2ccc([N+](=O)[O-])cc2)o1 | 4720 nM
28 | C[C@]12CCC3C(CC[C@H]4C[C@H](O)CC[C@]34C)C1C[C@@H](CCCCl)[C@@H]2O (stereo partly specified) | 500 nM
29 | CCC(=Nc1ccccc1O)C1=C(O)CC(c2ccccc2)CC1=O (stereo unspecified) | 1630 nM
30 | OCC[n+]1c2ccccc2nc2ccc(N3CCOCC3)cc21 | 3810 nM
31 | CC(C)(C)Nc1ncnc2c1cnn2-c1ccccc1 | 470 nM
32 | C[C@]12CCC3C(CC[C@H]4C[C@H](O)CC[C@]34C)C1CCC2=O (stereo partly specified) | 630 nM
33 | COc1ccc2c3c(cccc13)N(C)N=C2C | 7910 nM
34 | COc1ccc2c(c1)c1nnc(SC)nc1n2C | 3230 nM
35 | Nc1cc2nc3ccccc3nc2cc1N | 1850 nM
36 | CC(C)(C)n1nc(-c2ccc(Cl)cc2)c2c(N)ncnc21 | 4790 nM
37 | COC(=O)c1cccc2nc3c(C(C)O)cccc3nc12 (stereo unspecified) | 1290 nM
38 | CC(C)(C)n1nc(-c2ccc(F)cc2)c2c(N)ncnc21 | 5170 nM
39 | FC(F)(F)c1nc2cc3nc4ccccc4[nH]c3cc2n1 | 210 nM
40 | O=C1c2c(O)ccc(O)c2C(=O)c2c(NCCNCCO)ccc(NCCNCCO)c21 | 5250 nM
41 | COc1ccc2nc3ccccc3nc2c1N | 660 nM
42 | Cc1ccc(-c2nn(C(C)(C)C)c3ncnc(N)c23)cc1 | 3030 nM
43 | CNc1ccc2nc3ccccc3[n+](C)c2c1 | 10100 nM
44 | [O-][n+]1c2ccccc2[n+]([O-])c2cc(O)ccc21 | 940 nM
45 | c1ccc2[nH]c3cc4ncnc4cc3nc2c1 | 40 nM
46 | c1ccc2nc3ccccc3nc2c1 | 440 nM
